Experiments:
[1] = test system: RAW264.7 cells (TLR4 activation by LPS); assay: TNF ELISA, LPS-stimulated RAW264.7 cells; format: cell-based, mouse; conditions: LPS 10 ng/ml; inhibitor even at 1 μM
Experimental: Figure EV3 Activity of select CSLP inhibitors in MDP and LPS‐stimulated RAW264.7 macrophages • A, B ELISA measurement of TNF release from RAW264.7 cells treated with MDP (10 μg/ml, 24 h) (A) or LPS (10 ng/ml) (B) and CSLP compounds as indicated. Values are expressed relative to the TNF release in cells treated with MDP without inhibitor (A) or as ng/ml TNF (B). Data information: Data represent the mean ± SEM of 2–3 independent experiments. Statistical significance in (B) is determined in relation to […] samples without inhibitor *P < 0.05, **P < 0.01, n.s., not significant. Two‐tailed unpaired Student's t‐test was used to determine statistical significance. […]
For HEKBlue assay, cells were seeded into clear 96 well plates at 7.5x10^3 cells/well and allowed to attach for 48 h. […] After 8-9 h, absorbance at 620 nm was measured using Victor3V plate reader (Perkin Elmer, Waltham, MA). Values of media-only wells were subtracted and %inhibition for each compound concentration relative to the DMSO/L18-MDP-treated controls were calculated.
Inhibition values + StDev were fitted by non-linear regression using Prism software (GraphPad Software, La Jolla, CA) to calculate IC50 values. […] After induction, 20 μl of media was mixed with 180 μl of QUANTI-Blue reagent (InvivoGen) and incubated at 37 °C for 3-4 h, followed by absorbance measurement at 620 nm. […]

THP1Blue cells, NOD1 = assay: THP1Blue NF-κB-SEAP reporter assay, TriDAP (NOD1); format: cell-based; conditions: Homo sapiens; TriDAP 10 μg/ml; read-out: THP1-Blue NF-κB Inhibition IC50 (TriDAP)
recombinant RIPK3 = molecular target: T1, recombinant RIPK3 (Homo sapiens, UniProt Q9Y572); assay: RIPK3 ADPGlo kinase assay; format: biochemical; conditions: concentrations up to 1 µM
T1 construct: made in house
T1 sequence (Q9Y572 whole entry, species assumed): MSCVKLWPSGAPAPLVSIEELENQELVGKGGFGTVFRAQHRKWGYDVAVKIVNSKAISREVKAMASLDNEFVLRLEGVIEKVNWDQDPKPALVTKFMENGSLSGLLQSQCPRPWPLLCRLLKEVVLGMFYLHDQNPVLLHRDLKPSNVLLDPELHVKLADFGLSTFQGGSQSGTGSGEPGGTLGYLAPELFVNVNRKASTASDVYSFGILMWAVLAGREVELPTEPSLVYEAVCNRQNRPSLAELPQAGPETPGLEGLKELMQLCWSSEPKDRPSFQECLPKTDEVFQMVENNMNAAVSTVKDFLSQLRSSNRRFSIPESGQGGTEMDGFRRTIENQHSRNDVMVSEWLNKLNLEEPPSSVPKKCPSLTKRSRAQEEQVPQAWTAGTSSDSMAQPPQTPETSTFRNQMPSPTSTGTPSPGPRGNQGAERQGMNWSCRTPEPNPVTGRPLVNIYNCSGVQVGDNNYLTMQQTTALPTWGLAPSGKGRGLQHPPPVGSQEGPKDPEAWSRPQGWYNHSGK
Experimental: Cell viability was determined using CellTiter‐Glo assay (Promega). […] Kinase activities were determined using ADPGlo assay (Promega). • Structure of the active conformation of RIPK2 kinase domain in complex with AMP‐PNP (PDB ID: 5AR3). Figure depicts locations of the adenine and deep pockets. […] Key residues discussed in the text are shown as sticks (Lys/Glu Glu‐in bond—bottom left, catalytic Asp residues (Asp146/Asp164)—bottom right, R‐spine—right). P‐loop of CSLP18 structure is shown in yellow. Structured segment of activation segment (AS) observed in active conformation structures is shown in red. • Structure of RIPK2 kinase domain (gray ribbons) in complex with CSLP18 (orange) (PDB ID 6FU5). Sticks are shown for residues in the vicinity of the cavity surrounding the key inhibitor position R1. A 2Fo‐Fc electron density map contoured at 1 sigma is shown for the inhibitor and the residues lining the key region around inhibitor R^1 position. • Molecular docking model of RIPK2 kinase domain in complex with CSLP37 (yellow) based on RIPK2/CSLP18 structure (Fig 3D). […] Data information: Data in (A–C, G) represent the mean ± SEM of three independent experiments. **P < 0.01. Two‐way ANOVA was used to determine statistical significance. […]

Row | Compound | TNF release following LPS [1] | IC50 (THP1Blue cells, NOD1) | inhibitory activity against RIPK3 (recombinant RIPK3)
1 | CCCS(=O)(=O)Nc1cc(-c2cc(-c3ccc(N4CCNCC4)cc3)cnc2N)cc(F)c1OC [CSLP37] | neither CSLP37 nor CSLP43 attenuated | 20.8 ± 1.2 nM | no inhibitory activity
2 | CCCS(=O)(=O)Nc1cc(-c2cc(-c3ccc(N4CCNCC4)cc3)cnc2N)cc(OC)c1OC [CSLP43] | neither CSLP37 nor CSLP43 attenuated | 1.43 ± 0.1 nM | no inhibitory activity
